“Also recorded” adds a separate entry of the source. Where two headings read alike, the source gives them in different places.

Experimental findings from patent US6734163B2, “Compositions and methods for inhibiting cellular proliferation” (EntreMed, Inc., priority 1997, dated 2004) are described below.

For this assay, the system named is human umbilical vein endothelial (HUVE) cells. The assay can be described thus: bFGF-induced proliferation of HUVE cells (uridine incorporation). It counts as cell-based. As to conditions: for antiproliferative activity, plasma TFPI compared with HepG2 TFPI: HUVE cell proliferation assay, FIG. 4; for Effect on Proliferation: bFGF 10 ng/ml, 48 hours, HUVE cells. On the procedure: Proliferation assays familiar to those skilled in the art using human umbilical vein endothelial (HUVE) cells were used to determine the effect of TFPI on bFGF-induced proliferation of human umbilical vein endothelial cells.
The proliferation assay involved the routine culturing of human umbilical vein endothelial (HUVE) cells to confluency in EGM media. The cells were trypsinized and plated in a 96-well plate at 5000 cells per well per 100 μL EBM media. The cells were allowed to adhere to the plate for at least 2 hours. Next, bFGF at 10 ng/ml and TFPI at various concentrations were added to the wells. The cells were cultured for 48 hours after which cell proliferation was determined using a standard uridine incorporation method.
Proliferation assays using HUVE cells, as described in Example 1, were used to determine the effect of heparin on TFPI inhibition of bFGF-induced proliferation. The purpose of this study was to determine whether heparin was able to neutralize the antiproliferative activity of TFPI.
TFPI was pre-incubated with equimolar concentrations of heparin and with concentrations of heparin that were five-fold in excess of the concentration of TFPI. The results are summarized below and are presented graphically in FIGS. 5a and 5b.
Cell proliferation assays, as described in Example 1, were conducted to determine the relative potency of native TFPI versus recombinant TFPI.
Cell proliferation assays, as described in Example 1, were conducted using full length recombinant TFPI, Platelet Factor 4 (PF-4), and recombinant Kringle 1-3 of Angiostatin™ peptide. Both PF-4 and Angiostatin™ peptide are known endogenous inhibitors of angiogenesis. PF-4 is a protein involved in the blood coagulation cascade and is referenced as an inhibitor of angiogenesis by Maione, T. et al. in the article “Inhibition of Angiogenesis by Recombinant Human Platelet Factor-4 and Related Peptides” Science 247:77 (1990). Angiostatin is a fragment of plasminogen and its inhibitory effect on angiogenesis is described by Cao, Y. et al. in the article “Kringle Domains of Human Angiostatin” J. Biol. Chem. 271:1 (1996).
PF-4 and TFPI were tested for inhibition of human umbilical vein endothelial cell (HUVEC) proliferation. Angiostatin™ peptide was tested for the inhibition of bovine capillary endothelial (BCE) proliferation.
Cell proliferation assays, as described above in Example 1, were conducted using fragments of recombinant TFPI containing the following domains: Kunitz-1, Kunitz-2, or Kunitz-3.

[1] abbreviates: Example 3, native versus recombinant TFPI, read-out: Fifty percent inhibition of the bFGF-induced proliferation of HUVE cells.

With “PF-4: Platelet Factor 4, protein of the blood coagulation cascade, known endogenous inhibitor of angiogenesis [reference compound]”, the IC50 (Example 4, read-out: concentration required for 50% inhibition of HUVE cell proliferation) was 1250 nM.

As to “Purified From HepG2 cells: TFPI purified from HepG2 cells containing full length and carboxyl-terminal lacking molecules”, the “antiproliferative activity, plasma TFPI compared with HepG2 TFPI” value was “comparable activities” and the “Effect on Proliferation” value was “Inhibition of Proliferation”.

Turning to “Purified From Human Plasma: full length, fully glycosylated TFPI (molecular weight 43,000) purified from human plasma”, the “antiproliferative activity, plasma TFPI compared with HepG2 TFPI” value is recorded as “comparable activities” and the “Effect on Proliferation” value is reported as “Inhibition of Proliferation”. Further, the IC50 under setting [1] came to 75 nM.

Take “Recombinant, Full Length: full length, partially glycosylated TFPI (molecular weight 35,000) produced recombinantly”: the “Effect on Proliferation” value is “Inhibition of Proliferation”. In addition, the IC50 under setting [1] is 150 nM. Further, under “HUVE cell proliferation, 50% inhibition compared”, the “potency relative to recombinant PF-4” value is listed as “approximately ten times more potent”. The IC50 (HUVEC proliferation, Example 4 table, read-out: Concentration for 50% Inhibition) is roughly 125 nM. The “activity relative to recombinant Kringle 1-3 of angiostatin” value (TFPI on HUVE cells versus Kringle 1-3 on BCE cells) is listed as “more active”.

Regarding “TFPI: tissue factor pathway inhibitor, source not specified in the heparin experiment (SEQ ID No. 1)”, the “Antiproliferative Activity of TFPI (effect of heparin)” value is reported as “did not lose its antiproliferative activity; also recorded: No Effect” (TFPI pre-incubated with equimolar heparin) and “did not lose its antiproliferative activity; also recorded: No Effect” (TFPI pre-incubated with heparin five-fold in excess of TFPI).
